According to ChEMBL document CHEMBL3044793, “Antihepatotoxic activity of ferolactone, a new furanocoumarin from Feronia limonia” (2012):
Calls of active or inactive are those of the source. The rule behind the calls is not given here.

How the values were obtained:
Rattus norvegicus [1] = experiment: Hepatoprotective activity against CCl4-induced toxicity in Rattus norvegicus Wistar albino (rat) assessed as normal parenchyma at 50 mg/kg, po administered QD for 6 days measured on day 8 by hematoxylin and eosin staining-based microscopic analysis; format: functional, organism-based; parameters: dose 50 mg/kg
Rattus norvegicus [2] = experiment: Hepatoprotective activity in Rattus norvegicus Wistar albino (rat) assessed as reduction in CCl4-induced fatty accumulation at 50 mg/kg, po administered QD for 6 days measured on day 8 by hematoxylin and eosin staining-based microscopic analysis; format: functional, organism-based; parameters: dose 50 mg/kg
Rattus norvegicus [3] = experiment: Hepatoprotective activity in Rattus norvegicus Wistar albino (rat) assessed as reduction in CCl4-induced hepatocyte injury at 50 mg/kg, po administered QD for 6 days measured on day 8 by hematoxylin and eosin staining-based microscopic analysis; format: functional, organism-based; parameters: dose 50 mg/kg
Rattus norvegicus [4] = experiment: Hepatoprotective activity in Rattus norvegicus Wistar albino (rat) assessed as reduction in CCl4-induced increase in SGOT level at 50 mg/kg, po administered QD for 6 days measured on day 8 by colorimetric analysis relative to ocntrol; format: functional; parameters: scale not given: the % may be the effect or the level left
Rattus norvegicus [5] = experiment: Hepatoprotective activity against CCl4-induced toxicity in Rattus norvegicus Wistar albino (rat) assessed as total albumin level at 50 mg/kg, po administered QD for 6 days measured on day 8 (reference value: 2.33 +/- 0.18 g/dl); format: functional
Rattus norvegicus [6] = experiment: Hepatoprotective activity in Rattus norvegicus Wistar albino (rat) assessed as reduction in CCl4-induced necrosis at 50 mg/kg, po administered QD for 6 days measured on day 8 by hematoxylin and eosin staining-based microscopic analysis; format: functional, organism-based; parameters: dose 50 mg/kg
Rattus norvegicus [7] = experiment: Hepatoprotective activity against CCl4-induced toxicity in Rattus norvegicus Wistar albino (rat) assessed as clear central vein at 50 mg/kg, po administered QD for 6 days measured on day 8 by hematoxylin and eosin staining-based microscopic analysis; format: functional, organism-based; parameters: dose 50 mg/kg
Rattus norvegicus [8] = experiment: Hepatoprotective activity in Rattus norvegicus Wistar albino (rat) assessed as reduction in CCl4-induced lymphocytic infiltration at 50 mg/kg, po administered QD for 6 days measured on day 8 by hematoxylin and eosin staining-based microscopic analysis; format: functional, organism-based; parameters: dose 50 mg/kg
Rattus norvegicus [9] = experiment: Hepatoprotective activity in Rattus norvegicus Wistar albino (rat) assessed as increase in CCl4-induced reduction in total protein level at 50 mg/kg, po administered QD for 6 days measured on day 8 relative to control; format: functional; parameters: scale not given: the % may be the effect or the level left
Rattus norvegicus [10] = experiment: Hepatoprotective activity against CCl4-induced toxicity in Rattus norvegicus Wistar albino (rat) assessed as normal portal triad at 50 mg/kg, po administered QD for 6 days measured on day 8 by hematoxylin and eosin staining-based microscopic analysis; format: functional, organism-based; parameters: dose 50 mg/kg
Rattus norvegicus [11] = experiment: Hepatoprotective activity in Rattus norvegicus Wistar albino (rat) assessed as reduction in CCl4-induced increase in SGPT level at 50 mg/kg, po administered QD for 6 days measured on day 8 by colorimetric analysis relative to control; format: functional; parameters: scale not given: the % may be the effect or the level left
Rattus norvegicus [12] = experiment: Hepatoprotective activity in Rattus norvegicus Wistar albino (rat) assessed as reduction in CCl4-induced increase in alkaline phosphatase level at 50 mg/kg, po administered QD for 6 days measured on day 8 relative to control; format: functional; parameters: scale not given: the % may be the effect or the level left

`COc1c2ccoc2c(OC/C=C(\C)CC2C=C(C)C(=O)O2)c2oc(=O)ccc12` (configuration not stated) [FEROLACTONE] was tested, and the Activity (Rattus norvegicus [1]) was “Active”, the Activity (Rattus norvegicus [2]) was “Active” and the Activity (Rattus norvegicus [3]) was “Active”. For the same compound, the Activity (Rattus norvegicus [4]) was 43.44%, the Activity (Rattus norvegicus [5]) was 3.44 g/dL and the Activity (Rattus norvegicus [6]) was “Active”. The Activity (Rattus norvegicus [7]) was “Active”, the Activity (Rattus norvegicus [8]) was “Active” and the Activity (Rattus norvegicus [9]) was 36.15%. The Activity (Rattus norvegicus [10]) was “Active”, the Activity (Rattus norvegicus [11]) was 39.63% and the Activity (Rattus norvegicus [12]) was 41.16%.
